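The compound was tested at five concentrations on cells cultured in 96-well plates, with a 48-hour exposure period. GI50 marks 50% less growth. TGI denotes the concentration required for complete inhibition of growth.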
How the values were obtained:
Experiment in all cases: NCI-60 cell line screen, 48 h
ACHN renal = tested on: ACHN renal
NCI-H226 lung = tested on: NCI-H226 lung
NCI-H23 lung = tested on: NCI-H23 lung
A498 renal = tested on: A498 renal
COLO 205 colon = tested on: COLO 205 colon
CAKI-1 renal = tested on: CAKI-1 renal
OVCAR-8 ovarian = tested on: OVCAR-8 ovarian
RPMI-8226 leukemia = tested on: RPMI-8226 leukemia
SK-MEL-2 melanoma = tested on: SK-MEL-2 melanoma
IGROV1 ovarian = tested on: IGROV1 ovarian
NCI-H522 lung = tested on: NCI-H522 lung
CCRF-CEM leukemia = tested on: CCRF-CEM leukemia
HOP-62 NSCLC = tested on: HOP-62 NSCLC
SNB-19 CNS = tested on: SNB-19 CNS

| Structure (SMILES) | TGI (ACHN renal) [µM] | TGI (NCI-H226 lung) [µM] | TGI (NCI-H23 lung) [µM] | TGI (A498 renal) [µM] | TGI (COLO 205 colon) [µM] | TGI (CAKI-1 renal) [µM] | TGI (OVCAR-8 ovarian) [µM] | TGI (RPMI-8226 leukemia) [µM] | TGI (SK-MEL-2 melanoma) [µM] | TGI (IGROV1 ovarian) [µM] | TGI (NCI-H522 lung) [µM] | TGI (CCRF-CEM leukemia) [µM] | TGI (HOP-62 NSCLC) [µM] | TGI (SNB-19 CNS) [µM] | GI50 (SNB-19 CNS) [µM] |
| --- | --- | --- | --- | --- | --- | --- | --- | --- | --- | --- | --- | --- | --- | --- | --- |
| O=c1c(-c2c(-c3ccccc3)oc3ccc(Cl)cc3c2=O)c(-c2ccccc2)oc2ccc(Cl)cc12 | > 100 | > 100 | > 100 | > 100 | > 100 | > 100 | > 100 | > 100 | > 100 | > 100 | > 100 | > 100 | > 61.4 | > 100 | – |
| COC(=O)C(Cc1ccccc1)NC(=O)C(CCC(=O)OCc1ccccc1)NC(=O)OC(C)(C)C (configuration not stated) | > 100 | > 100 | > 100 | > 100 | > 100 | > 100 | > 100 | > 100 | > 100 | > 100 | > 100 | > 100 | > 100 | > 100 | – |
| O=C(CSc1nnc(Cc2ccccc2)o1)Nc1cccc(Cl)c1 | > 100 | > 100 | > 100 | > 100 | > 100 | > 100 | > 100 | > 100 | > 100 | > 100 | > 100 | > 100 | > 100 | > 100 | – |
| COc1ccc2c(c1)CCN=C2Cc1ccccc1CCCl | 79.2 | 83.5 | 81.8 | > 100 | 40 | 63.2 | 67.9 | 46.7 | 58.3 | > 100 | 58.4 | > 100 | > 100 | > 100 | – |
| O=C(Nc1ccc(Cl)cc1)NS(=O)(=O)c1coc2ccccc2c1=O | > 10 | > 10 | > 10 | > 10 | > 10 | > 10 | > 10 | > 10 | > 10 | > 10 | > 10 | > 10 | > 10 | > 10 | – |
| O=C1Oc2ccccc2C(=O)/C1=C/N1C(=O)/C(=C/c2ccc3c(c2)OCO3)SC1=S | 28.1 | 34.5 | 30.5 | 13.2 | 36.6 | 36.5 | 40.9 | 38.3 | 34.2 | 37.2 | 45.2 | > 61.3 | 24.4 | 37.1 | 12.6 |
| C=CC(CBr)CCC(Br)C(C)(C)Br (configuration not stated) | > 10 | > 10 | > 10 | > 10 | > 10 | > 10 | > 10 | > 10 | > 10 | > 10 | > 10 | > 10 | > 10 | > 10 | – |
| COc1c(C)c2c(c3c1c(=O)c1ccccc1n3C)C=CC(C)(C)O2 | 56.3 | > 100 | > 100 | 73.4 | 99.1 | 82.9 | 91.5 | 76.8 | 48.3 | > 100 | 67.3 | 83.9 | 85.8 | > 100 | – |
| CN(C)C(=S)N1C(=S)N(c2ccccc2)C(=Nc2ccccc2)C1=Nc1ccccc1 | > 100 | > 100 | > 100 | > 100 | > 100 | > 100 | > 100 | > 100 | > 100 | > 100 | > 100 | > 100 | > 100 | > 100 | – |
| C/C(=C/c1ccccc1)CN(C(=O)/C=C\Sc1ccccc1)C(C)(C)C | > 100 | > 100 | > 100 | > 100 | > 100 | > 100 | > 100 | > 100 | > 100 | > 100 | > 46.4 | > 100 | > 100 | > 100 | – |
| CC(C)(C)N1C(=O)c2ccccc2C1(O)C(F)(F)F (configuration not stated) | > 100 | > 100 | > 100 | > 100 | > 100 | > 100 | > 100 | > 100 | > 100 | > 100 | > 100 | > 100 | > 100 | > 100 | – |
| CC1(C)C=Cc2c(cc3oc4ccc5c(c4c(=O)c3c2O)C=CC(C)(C)O5)O1 | > 100 | > 100 | > 100 | > 100 | > 100 | > 100 | > 100 | > 100 | > 100 | > 100 | > 100 | > 100 | > 100 | > 100 | – |
| CC(C)/C(Cl)=N/OC(=O)Nc1cccc(C(F)(F)F)c1 | 3.06 | 30.7 | 31.3 | 37.1 | 3.46 | 3.14 | 31.8 | 3.69 | 32.5 | 26.6 | 0.951 | 13.8 | 32.1 | 34 | – |
| CC(C)(Br)C(Br)CCC(=CCBr)CBr (mixture of isomers) | 21.6 | 28.3 | 12.1 | 44.6 | 10.7 | 33.1 | 6.36 | 4.83 | 9.32 | 8.9 | 3.12 | 6.1 | 8.89 | 31.1 | – |
| O=C(NO)c1ccc(OCc2cccc(Cl)c2)cc1 | 25 | 36 | 20.9 | 20 | 51.7 | 37.5 | 33.3 | > 58.9 | 70.4 | 23.3 | 19.2 | > 100 | > 47 | > 100 | – |
| CCOC(=O)C[C@@H](C)[C@]1(C(=O)OC)CCCC1=O | > 100 | > 100 | > 100 | > 100 | > 84.2 | > 100 | > 100 | > 71.4 | > 100 | > 100 | > 100 | > 100 | > 100 | > 100 | – |
| Cc1[nH]n(C2=NCCN2)c(=O)c1C | > 100 | > 100 | > 100 | > 100 | > 100 | > 100 | > 100 | > 100 | > 100 | > 100 | > 100 | > 100 | > 100 | > 100 | – |
| Cc1ccccc1N=CN(C)C | > 100 | > 100 | 61.8 | > 100 | > 100 | > 100 | > 100 | 58.2 | > 100 | > 100 | 94.2 | > 100 | > 100 | > 100 | – |
| Cc1nnc2sc(Cl)nn12 | 54.8 | 86.2 | 34.8 | > 100 | 29.9 | 43.6 | > 100 | > 100 | 90.3 | 30.7 | 23.9 | 26.4 | 96 | > 100 | – |

Reference: PubChem BioAssay (NCI)
